Measurements as given in ChEMBL document CHEMBL1201862, “PubChem BioAssay data set” (2004).
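Cultured in 96-well plates, cells were exposed to test compound for 48 hours across five concentrations. The concentration for 50% growth inhibition is given as GI50.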 The source made the active and inactive calls. Cut-off read from the data, not from the text of the source: active = GI50 up to about 1.1 µM and inactive = higher.

What was measured:
Test in all cases: NCI anticancer screen, dose series, 48 h
[1] = tested on: NCI-H460
[2] = tested on: MDA-MB-435
[3] = tested on: MDA-N
[4] = tested on: NCI/ADR-RES
[5] = tested on: A498
[6] = tested on: SK-MEL-2
[7] = tested on: 786-0
[8] = tested on: SF-539
[9] = tested on: PC-3
[10] = tested on: MCF7
[11] = tested on: NCI-H522
[12] = tested on: U-251
[13] = tested on: UACC-62
[14] = tested on: UACC-257
[15] = tested on: NCI-H23
[16] = tested on: OVCAR-8
[17] = tested on: MDA-MB-231
[18] = tested on: HT-29
[19] = tested on: SW-620
[20] = tested on: OVCAR-5

Structure (SMILES) | GI50 [1] | GI50 [2] | GI50 [3] | GI50 [4] | GI50 [5] | GI50 [6] | GI50 [7] | GI50 [8] | GI50 [9] | GI50 [10] | GI50 [11] | GI50 [12] | GI50 [13] | GI50 [14] | GI50 [15] | GI50 [16] | GI50 [17] | GI50 [18] | GI50 [19] | GI50 [20]
O=C(O)C(CCc1ccccn1)c1ccccc1 (stereo not given) | > 100 µM (inactive) | > 100 µM (inactive) | > 100 µM (inactive) | > 100 µM (inactive) | > 100 µM (inactive) | > 100 µM (inactive) | > 100 µM (inactive) | > 100 µM (inactive) | > 100 µM (inactive) | > 100 µM (inactive) | > 100 µM (inactive) | > 100 µM (inactive) | > 100 µM (inactive) | > 100 µM (inactive) | > 100 µM (inactive) | > 100 µM (inactive) | > 100 µM (inactive) | > 100 µM (inactive) | > 100 µM (inactive) | > 100 µM (inactive)
CCOC(=O)C(NC(=O)c1ccccc1)(Nc1ccc(S(=O)(=O)Nc2cc(C)nc(C)n2)cc1)C(F)(F)F (stereo not given) | > 100 µM (inactive) | > 100 µM (inactive) | > 100 µM (inactive) | > 100 µM (inactive) | 14.7 µM (inactive) | > 100 µM (inactive) | > 100 µM (inactive) | > 100 µM (inactive) | > 100 µM (inactive) | > 100 µM (inactive) | > 100 µM (inactive) | > 100 µM (inactive) | > 100 µM (inactive) | > 100 µM (inactive) | > 100 µM (inactive) | > 100 µM (inactive) | > 100 µM (inactive) | > 100 µM (inactive) | 56.1 µM (inactive) | > 100 µM (inactive)
COC1/C=C/C(C)C(C(C)C(OC)C(C)CCC(=O)C(C)C(C/C=C/N(C)C=O)OC)OC(=O)/C=C/C=C(\C)CC(OC)C(OC)C2=CC(=O)O[C@@H](C(C)C(OC)CC(OC)/C=C/C(C)C(O)C1)[C@H]2O (stereo not given in full) | 0.0759 µM (active) | 0.249 µM (active) | 0.208 µM (active) | 0.226 µM (active) | 0.0723 µM (active) | 0.0276 µM (active) | 0.147 µM (active) | 0.128 µM (active) | 0.0855 µM (active) | 0.208 µM (active) | 0.119 µM (active) | 0.111 µM (active) | 0.137 µM (active) | 0.13 µM (active) | 0.145 µM (active) | 0.22 µM (active) | 0.0773 µM (active) | 0.0615 µM (active) | 0.12 µM (active) | 0.163 µM (active)
N#Cc1ccccc1NC(=O)C(O)C(O)C(O)C(O)C=O (stereo not given) | > 100 µM (inactive) | > 100 µM (inactive) | > 100 µM (inactive) | > 100 µM (inactive) | > 100 µM (inactive) | > 100 µM (inactive) | > 100 µM (inactive) | > 100 µM (inactive) | > 100 µM (inactive) | > 100 µM (inactive) | > 100 µM (inactive) | > 100 µM (inactive) | > 100 µM (inactive) | > 100 µM (inactive) | > 100 µM (inactive) | > 100 µM (inactive) | > 100 µM (inactive) | > 100 µM (inactive) | > 100 µM (inactive) | > 100 µM (inactive)
O=C(O)CCCCCNC(=O)CCC(CN(CC(=O)OCc1ccccc1)CC(=O)OCc1ccccc1)N(CC(=O)OCc1ccccc1)CC(=O)OCc1ccccc1 (stereo not given) | 30.4 µM (inactive) | 19.4 µM (inactive) | 18.2 µM (inactive) | 20.3 µM (inactive) | 17.9 µM (inactive) | 16 µM (inactive) | 18 µM (inactive) | 20.7 µM (inactive) | 17 µM (inactive) | 19.4 µM (inactive) | 19.2 µM (inactive) | 22 µM (inactive) | 16.7 µM (inactive) | 18.8 µM (inactive) | 18.4 µM (inactive) | 16.5 µM (inactive) | 19.5 µM (inactive) | 17.9 µM (inactive) | 22.1 µM (inactive) | 18.2 µM (inactive)
N=C(N)N/N=C(\c1ccc(Cl)cc1)C1CC1 | 15.6 µM (inactive) | 16.9 µM (inactive) | 16.1 µM (inactive) | 25.4 µM (inactive) | 14.4 µM (inactive) | 18.3 µM (inactive) | 16.9 µM (inactive) | 17.2 µM (inactive) | 16.2 µM (inactive) | 17.1 µM (inactive) | 14.8 µM (inactive) | 14.2 µM (inactive) | 15.9 µM (inactive) | 14.5 µM (inactive) | 27.1 µM (inactive) | 20.7 µM (inactive) | 18.5 µM (inactive) | 16.5 µM (inactive) | 18.4 µM (inactive) | 17.9 µM (inactive)
OC1CCCC1C(O)(C(F)(F)F)C(F)(F)F (stereo not given) | > 100 µM (inactive) | > 100 µM (inactive) | > 100 µM (inactive) | > 100 µM (inactive) | > 100 µM (inactive) | > 100 µM (inactive) | > 100 µM (inactive) | > 100 µM (inactive) | > 100 µM (inactive) | > 100 µM (inactive) | > 100 µM (inactive) | > 100 µM (inactive) | > 100 µM (inactive) | > 100 µM (inactive) | > 100 µM (inactive) | > 100 µM (inactive) | > 100 µM (inactive) | > 100 µM (inactive) | > 100 µM (inactive) | > 100 µM (inactive)
O=C1/C(=C\c2cccc(Oc3ccccc3)c2)S(=O)(=O)C(c2ccccc2)N1c1ccc(Cl)cc1 (stereo not given) | 14.2 µM (inactive) | 7.94 µM (inactive) | 14.6 µM (inactive) | 17.3 µM (inactive) | 34.4 µM (inactive) | 8.36 µM (inactive) | 14 µM (inactive) | 23.7 µM (inactive) | 17.1 µM (inactive) | 12.6 µM (inactive) | 15.7 µM (inactive) | 16 µM (inactive) | 7.82 µM (inactive) | 24 µM (inactive) | 24.9 µM (inactive) | 16.9 µM (inactive) | 14.8 µM (inactive) | 14.3 µM (inactive) | 16.7 µM (inactive) | 11.7 µM (inactive)
CC(=O)Nc1c2sscc-2n(C)c1=O [THIOLUTIN] | 0.537 µM (active) | 1.01 µM (active) | 1.56 µM (inactive) | 1.16 µM (inactive) | 1.86 µM (inactive) | 1.88 µM (inactive) | 1.52 µM (inactive) | 1.86 µM (inactive) | 1.58 µM (inactive) | 0.63 µM (active) | 1.3 µM (inactive) | 1.12 µM (active) | 0.443 µM (active) | 1.57 µM (inactive) | 0.853 µM (active) | 0.638 µM (active) | 1.73 µM (inactive) | 0.272 µM (active) | 0.664 µM (active) | 1.6 µM (inactive)
